According to patent US20250109127A1, “METHODS OF USE OF PHENOXYPROPYLAMINE COMPOUNDS TO TREAT DEPRESSION” (Minerva Neurosciences, Inc., priority 2013, published 2025):
Values joined by “and” are separate entries in the source; they are usually repeats but may differ in a detail not shown here. Equal entries are not always repeated. Structures can show the parent of a compound that is named as a salt.

Test system: norepinephrin release in the rat prefrontal cortex
Assay: Microdialysis: norepinephrine release in prefrontal cortex after I.P. administration
Assay type: in vivo
Settings: for NOREPINEPHRIN in dialysate, individual animals / NOREPINEPHRIN in dialysate, MEAN: SON-117 0.1 mg/kg I.P.; for NOREPINEPHRIN in dialysate, individual animals: hydrochloride, 0.1 mg/kg; for NOREPINEPHRIN (% of respective basal) MEAN / NE concentrations in prefrontal cortex, significant slight increase: SON-117 0.3 mg/kg I.P.; for NOREPINEPHRIN (% of respective basal) MEAN: n = 8
Protocol: The aim of the study was to evaluate, using microdialysis, the effects of an intraperitoneal (I.P.) administration in rats of three different doses of SON-117 on dopamine and its metabolites, serotonin and its metabolite (5-HIAA), and norepinephrine levels in prefrontal cortex.
Thirty-two adult male Wistar rats were used for the whole study (4 groups of eight animals planned for the study, Table 1).
Surgery was performed on rats weighing about 300 g at the beginning of the experiments. Rats were anaesthetized with Ketamine (50 mg/kg) & Xylazine (15 mg/kg) by intramuscular administration. The animals were placed in a stereotaxic apparatus in the flat-skull position at a constant setting of −3.3 mm between ear bars and the incisor bar. The animals were treated with a local anesthesic (xylocaine 1%, Astra Zeneca) and an analgesic (Temgesic, from Schering Plough, 0.05 mg/kg, s.c.). A rostrocaudal midline incision was made with a lancet to expose the dorsal skull surface. The “stereotaxic zero” was defined by the Bregma in accordance with Paxinos and Watson's atlas (1986). A hole was drilled in the skull with a drill and the meninges were pierced with a sterile needle to implant a CMA12 guide cannula which later received the dialysis probe.
Coordinates used for implanting guide cannula in prefrontal cortex from Bregma were anteroposterior 3.7 mm, mediolateral 0.8 mm, and dorsoventral −2 mm (top of the probe was at −5 mm). The guide cannula was fixed to the skull with two stainless steel screws (1.88 mm outside diameter) anchored. An application of dental cement was added. A plastic collar allowed each animal to be tethered to a Swivel assembly of the CMA 120 awake animal system. Following surgery, rats were kept in individual cages and allowed to recover for a minimum of 3-5 days before the experimentation. The rats were handled and put in plastic bowl for 10 min at least every day to habituate the animals to their new environment for the dialysis. An I.P. administration with saline was also performed every day.
Dialysis probes (CMA12/3 mm, membrane, 20 kD cut-off, Carnegie Medicine, Stockholm, Sweden), were carefully washed before inserting into the guide cannula. The wash was performed with the artificial cerebrospinal fluid (aCSF) medium (NaCl 147 mM, KCl 2.7 mM, CaCl2 1.2 mM, MgCl2 0.85 mM) at room temperature. The dialysis system was then equilibrated at 20° C. at a perfusion rate of 1 μl/min with a Carnegie pump (CMA100). All catheters (FEP tubing, internal volume of 1.2 μl/10 cm, and tubing adaptors) used for microdialysis were treated in the same conditions.
The probes duly prepared were inserted into the guide cannula and the CMA120 Swivel assembly secured to the animal using a plastic collar. Flow through the dialysis probe with aCSF was maintained at a rate of 1 μl/min during the whole experimentation. The first four fractions (corresponding to 2 hours) were discarded to avoid the effects of parenchymal disturbance and to ensure that an approximate steady-state level was reached. Fractions were then collected over a period of 8.5 h during which time the animals remained quiet. The dialysates were automatically collected with an autosampler (microfraction collector CMA 140, Carnegie Medicin) and stored at −80° C. until analysis. […] Perfusion was then maintained for 7 hours with aCSF. The dialysates (30 μl) were collected into 300 μl vials, transferred into dry ice and then kept frozen (−80° C.) until analysis. Frozen samples were shipped to a partner for analysis. At the end of the microdialysis study, a PBS with colored ink was perfused through the probe in order to visualize the dialyzed area.
Catecholamine assay: Concentrations of dopamine, DOPAC, HVA, 5-HIAA, 5-HT, and norepinephrin were determined for each sample by HPLC coupled with electrochemical detection. […]

SMILES: Cc1nnc(-c2cc3c(OC[C@@H](O)CN4CCC(c5ccc(Cl)c(Cl)c5)CC4)cccc3o2)o1 [SON-117, (S)-1-(4-(3,4-dichlorophenyl)piperidino)-3-(2-(5-methyl-1,3,4-oxadiazol-2-yl)benzo(b)furan-4-yloxy)-2-propanol hydrochloride]
- NOREPINEPHRIN in dialysate, individual animals (T1 h 30-T2 h): 62.36 % of respective basal and 99.69 % of respective basal and 70.34 % of respective basal and 106.16 % of respective basal and 81.71 % of respective basal and 48.44 % of respective basal and 107.26 % of respective basal and 74.26 % of respective basal
- NOREPINEPHRIN in dialysate, MEAN (T1 h-T1 h 30): 91.81 % of respective basal
- NOREPINEPHRIN in dialysate, individual animals (T1 h-T1 h 30): 76.18 % of respective basal and 103.4 % of respective basal and 76.89 % of respective basal and 121.08 % of respective basal and 91.95 % of respective basal and 79.30 % of respective basal and 109.47 % of respective basal and 76.21 % of respective basal
- NOREPINEPHRIN in dialysate, MEAN (T2 h 30-T3 h): 79.52 % of respective basal
- NOREPINEPHRIN in dialysate, individual animals (T2 h 30-T3 h): 73.33 % of respective basal and 70.54 % of respective basal and 58.97 % of respective basal and 74.27 % of respective basal and 104.33 % of respective basal and 81.47 % of respective basal and 116.2 % of respective basal and 57.05 % of respective basal
- NOREPINEPHRIN in dialysate, MEAN (T2 h-T2 h 30): 78.83 % of respective basal
- NOREPINEPHRIN in dialysate, individual animals (T2 h-T2 h 30): 66.69 % of respective basal and 98.72 % of respective basal and 65.78 % of respective basal and 70.31 % of respective basal and 92.44 % of respective basal and 49.48 % of respective basal and 109.29 % of respective basal and 77.91 % of respective basal
- NOREPINEPHRIN in dialysate, MEAN (T3 h 30-T4 h): 86.32 % of respective basal
- NOREPINEPHRIN in dialysate, individual animals (T3 h 30-T4 h): 91.02 % of respective basal and 105.19 % of respective basal and 59.70 % of respective basal and 76.69 % of respective basal and 123.13 % of respective basal and 96.82 % of respective basal and 105.05 % of respective basal and 32.98 % of respective basal
- NOREPINEPHRIN in dialysate, MEAN (T3 h-T3 h 30): 86.82 % of respective basal
- NOREPINEPHRIN in dialysate, individual animals (T3 h-T3 h 30): 152.99 % of respective basal and 92.11 % of respective basal and 58.83 % of respective basal and 77.12 % of respective basal and 91.45 % of respective basal and 56.94 % of respective basal and 113.71 % of respective basal and 51.43 % of respective basal
- NOREPINEPHRIN in dialysate, MEAN (T4 h 30-T5 h): 109.54 % of respective basal
- NOREPINEPHRIN in dialysate, individual animals (T4 h 30-T5 h): 204.20 % of respective basal and 144.74 % of respective basal and 38.63 % of respective basal and 124.67 % of respective basal and 96.8 % of respective basal and 102.84 % of respective basal and 104.62 % of respective basal and 59.86 % of respective basal
- NOREPINEPHRIN in dialysate, MEAN (T4 h-T4 h 30): 111.29 % of respective basal
- NOREPINEPHRIN in dialysate, individual animals (T4 h-T4 h 30): 220.91 % of respective basal and 88.73 % of respective basal and 75.17 % of respective basal and 90.11 % of respective basal and 112.61 % of respective basal and 91.91 % of respective basal and 116.00 % of respective basal and 94.90 % of respective basal
- NOREPINEPHRIN in dialysate, MEAN (T5 h 30-T6 h): 93.44 % of respective basal
- NOREPINEPHRIN in dialysate, individual animals (T5 h 30-T6 h): 159.66 % of respective basal and 111.49 % of respective basal and 76.32 % of respective basal and 79.52 % of respective basal and 94.09 % of respective basal and 72.17 % of respective basal and 101.35 % of respective basal and 52.95 % of respective basal
- NOREPINEPHRIN in dialysate, MEAN (T5 h-T5 h 30): 94.69 % of respective basal
- NOREPINEPHRIN in dialysate, individual animals (T5 h-T5 h 30): 188.91 % of respective basal and 96.57 % of respective basal and 69.39 % of respective basal and 78.76 % of respective basal and 94.15 % of respective basal and 68.42 % of respective basal and 102.42 % of respective basal and 58.91 % of respective basal
- NOREPINEPHRIN in dialysate, MEAN (T6 h 30-T7 h): 117.60 % of respective basal
- NOREPINEPHRIN in dialysate, MEAN (T6 h-T6 h 30): 89.68 % of respective basal
- NOREPINEPHRIN in dialysate, individual animals (T6 h-T6 h 30): 196.16 % of respective basal and 73.01 % of respective basal and 27.50 % of respective basal and 79.85 % of respective basal and 96.77 % of respective basal and 85.56 % of respective basal
- NOREPINEPHRIN in dialysate, MEAN (T-30 min-T0 (pre-dose)): 91.33 % of respective basal
- NOREPINEPHRIN in dialysate, MEAN (T-1 h 30-T-1 h (pre-dose)): 109.41 % of respective basal
- NOREPINEPHRIN in dialysate, MEAN (T-1 h-T-30 min (pre-dose)): 99.26 % of respective basal
- levels of NE compared to the citalopram treated group (two-way ANOVA, significant) (SON-117 0.1 mg/kg vs citalopram 10 mg/kg, at 4.5 h and 7 h): higher
- NOREPINEPHRIN (% of respective basal) MEAN (T0-T30 min): 109.06 % of respective basal
- NOREPINEPHRIN (% of respective basal) MEAN (T30-T1 h): 104.15 % of respective basal
- NOREPINEPHRIN (% of respective basal) MEAN (T1 h 30-T2 h): 95.77 % of respective basal
- NOREPINEPHRIN (% of respective basal) MEAN (T1 h-T1 h 30): 100.55 % of respective basal
- NOREPINEPHRIN (% of respective basal) MEAN (T2 h 30-T3 h): 106.82 % of respective basal
- NOREPINEPHRIN (% of respective basal) MEAN (T2 h-T2 h 30): 100.26 % of respective basal
- NOREPINEPHRIN (% of respective basal) MEAN (T3 h 30-T4 h): 128.69 % of respective basal
- NOREPINEPHRIN (% of respective basal) MEAN (T3 h-T3 h 30): 116.32 % of respective basal
- NOREPINEPHRIN (% of respective basal) MEAN (T4 h 30-T5 h): 125.81 % of respective basal
- NOREPINEPHRIN (% of respective basal) MEAN (T4 h-T4 h 30): 119.37 % of respective basal
- NOREPINEPHRIN (% of respective basal) MEAN (T5 h 30-T6 h): 135.41 % of respective basal
- NOREPINEPHRIN (% of respective basal) MEAN (T5 h-T5 h 30): 124.93 % of respective basal
- NOREPINEPHRIN (% of respective basal) MEAN (T6 h 30-T7 h): 140.96 % of respective basal
- NOREPINEPHRIN (% of respective basal) MEAN (T6 h-T6 h 30): 137.68 % of respective basal
- NOREPINEPHRIN (% of respective basal) MEAN (T-30 min-T0 (before administration)): 94.72 % of respective basal
- NOREPINEPHRIN (% of respective basal) MEAN (T-1 h 30-T-1 h (before administration)): 105.37 % of respective basal
- NOREPINEPHRIN (% of respective basal) MEAN (T-1 h-T-30 min (before administration)): 99.90 % of respective basal
- NE concentrations in prefrontal cortex, significant slight increase (at 3.5 h): 117%
- NE concentrations in prefrontal cortex, significant slight increase (from 4.5 h to 7 h): 128%
- levels of NE compared to the citalopram treated group (two-way ANOVA, significant) (SON-117 0.3 mg/kg vs citalopram 10 mg/kg, at 3.5 h, 4 h, 4.5 h, 5 h, 5.5 h, 6 h and 7 h): higher
- NE dialysate levels vs mean pre-administration value (SON-117 3 mg/kg IP): no statistically significant differences
- levels of NE compared to the citalopram treated group (two-way ANOVA, significant) (SON-117 3 mg/kg vs citalopram 10 mg/kg, at 1.5 h and 3.5 h): higher
- release of NE, maximum increase (SON-117, three doses tested, 7 h after administration): 129%
